The values that follow come from patent publication US10399972B2, “Tricyclic compounds as inhibitors of mutant IDH enzymes” (Merck Sharp & Dohme Corp., priority 2015, dated 2019).

Chain of R132H mutant IDH1 enzyme (O75874 whole entry R132H): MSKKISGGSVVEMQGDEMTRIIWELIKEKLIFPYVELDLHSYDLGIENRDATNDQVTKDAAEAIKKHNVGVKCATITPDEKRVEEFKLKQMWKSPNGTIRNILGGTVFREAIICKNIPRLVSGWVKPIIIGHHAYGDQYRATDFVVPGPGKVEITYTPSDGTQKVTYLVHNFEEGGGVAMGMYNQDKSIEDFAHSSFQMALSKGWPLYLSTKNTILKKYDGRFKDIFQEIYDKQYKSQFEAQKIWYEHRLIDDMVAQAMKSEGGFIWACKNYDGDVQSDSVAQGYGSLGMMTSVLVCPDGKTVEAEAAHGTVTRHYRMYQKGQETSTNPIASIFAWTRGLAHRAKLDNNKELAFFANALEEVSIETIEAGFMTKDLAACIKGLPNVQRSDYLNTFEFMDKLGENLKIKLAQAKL

The experiment deals with R132H mutant IDH1 enzyme (Homo sapiens (Human), UniProt O75874, R132H). The experiment is described as follows: R132H IDH1 Enzymatic Assay. The experiment is classed as biochemical. The settings on record: 1.5 nM final, 30 min preincubation, 60 min reaction, Kinase-GLO luminescence. Here is the method:
R132H IDH1 Enzymatic Assay
Each test compound (10 mM stock in DMSO) is diluted in DMSO to make a 10-point, 3-fold dilution series. 125 nL of each dilution or DMSO alone is dispensed to a 384-well Greiner Lumitrac 200 assay plate using an Echo® Liquid Handler. To each well of the plate is added 20 uL of enzyme in assay buffer or assay buffer alone. Assay buffer consists of 50 mM sodium phosphate, pH 7.0, 50 mM magnesium chloride, 50 mM sodium chloride, and 0.01% (w/v) bovine serum albumin. When present, the R132H mutant IDH1 enzyme is at a working concentration of 1.875 nM (final concentration in assay of 1.5 nM). The assay plate is allowed to incubate for 30 minutes at room temperature and 5 uL of 5× substrate mixture (2.5 uM nicotinamide adenine dinucleotide phosphate, 100 uM adenosine diphosphate, 7.5 mM glyceraldehyde-3-phosphate, 7.5 ug/mL of spinach glyceraldehyde-3-phosphate dehydrogenase, 25 nM phosphoglycerate kinase, and 5 mM alpha-ketoglutarate in assay buffer) is added to all wells. The reaction plate is incubated for 60 minutes followed by addition of 25 uL of Promega Kinase-GLO reagent to all wells and 10-minute incubation.
Luminescence is measured using a PerkinElmer Envision plate reader. The percent activity of each dilution is determined as the ratio of background corrected signal to the background corrected signal of wells receiving only DMSO. IC50 values are determined by fitting percent activity data to a four-parameter logistic dose response equation. The IC50 values of the exemplified compounds are included in Table 8.
Compound `O=C(C1CCN(CC(F)(F)F)CC1)N1Cc2cc(F)cnc2Nc2cc(F)c(N3C[C@@H]4C[C@H]3CO4)cc21` [Example 20, (8-((1S,4S)-2-oxa-5-azabicyclo[2.2.1]heptan-5-yl)-3,9-difluoro-5,11-dihydro-6H-benzo[b]pyrido[2,3-e][1,4]diazepin-6-yl)(1-(2,2,2-trifluoroethyl)piperidin-4-yl)methanone] registered a half-inhibitory concentration (IC50) of 6.7 nM.
`O=C(C1CCN(CC(F)(F)F)CC1)N1Cc2cc(F)cnc2Nc2cc(F)c(N3CC4(CCCOC4)C3)cc21` [Example 21, (3,9-difluoro-8-(6-oxa-2-azaspiro[3.5]nonan-2-yl)-5,11-dihydro-6H-benzo[b]pyrido[2,3-e][1,4]diazepin-6-yl)(1-(2,2,2-trifluoroethyl)piperidin-4-yl)methanone] gave a 50% inhibitory concentration (IC50) of 4.5 nM.
Compound `O=C(C1CCN(CC(F)(F)F)CC1)N1Cc2cc(F)cnc2Nc2cc(F)c(N3[C@@H]4CO[C@H]5[C@@H]4OC[C@H]53)cc21` [Example 22, (3,9-difluoro-8-((3R,3aR,6R,6aR)-hexahydro-3,6-epiminofuro[3,2-b]furan-7-yl)-5,11-dihydro-6H-benzo[b]pyrido[2,3-e][1,4]diazepin-6-yl)(1-(2,2,2-trifluoroethyl)piperidin-4-yl)methanone] showed a 50% inhibitory concentration (IC50) of 4.2 nM.
As for `C[C@H]1CN(c2cc3c(cc2F)Nc2ncc(F)cc2CN3C(=O)C2CCN(CC(F)(F)F)CC2)[C@@H](C)CO1` [Example 23, (8-((2S,5S)-2,5-dimethylmorpholino)-3,9-difluoro-5,11-dihydro-6H-benzo[b]pyrido[2,3-e][1,4]diazepin-6-yl)(1-(2,2,2-trifluoroethyl)piperidin-4-yl)methanone], the half-maximal inhibitory concentration (IC50) was 23 nM.
`CC(C)O[C@H]1CC[C@H](C(=O)N2Cc3cc(F)cnc3Nc3cc(F)c(N4C[C@@H]5C[C@H]4CO5)cc32)CC1` [Example 24, {3,9-difluoro-8-[(1S,4S)-2-oxa-5-azabicyclo[2.2.1]hept-5-yl]-5,11-dihydro-6H-pyrido[2,3-b][1,5]benzodiazepin-6-yl}[trans-4-(propan-2-yloxy)cyclohexyl]methanone]: the IC50 was 5.6 nM.
`CC(C)O[C@H]1CC[C@H](C(=O)N2Cc3cc(F)cnc3Nc3cc(F)c(N4CC5(CCCOC5)C4)cc32)CC1` [Example 25, [3,9-difluoro-8-(6-oxa-2-azaspiro[3.5]non-2-yl)-5,11-dihydro-6H-pyrido[2,3-b][1,5]benzodiazepin-6-yl][trans-4-(propan-2-yloxy)cyclohexyl]methanone] gave a 50% inhibitory concentration (IC50) of 7.8 nM.
To `CC(C)O[C@H]1CC[C@H](C(=O)N2Cc3cc(F)cnc3Nc3cc(F)c(N4C5CCC4COC5)cc32)CC1` [Example 26, [3,9-difluoro-8-(3-oxa-8-azabicyclo[3.2.1]oct-8-yl)-5,11-dihydro-6H-pyrido[2,3-b][1,5]benzodiazepin-6-yl][trans-4-(propan-2-yloxy)cyclohexyl]methanone] belongs 13.8 nM; to `O=C(C1CCN(CC(F)(F)F)CC1)N1Cc2cccnc2Nc2cc(F)c(N3C[C@@H]4C[C@H]3CO4)cc21` [Example 27, (8-((1S,4S)-2-oxa-5-azabicyclo[2.2.1]heptan-5-yl)-9-fluoro-5,11-dihydro-6H-benzo[b]pyrido[2,3-e][1,4]diazepin-6-yl)(1-(2,2,2-trifluoroethyl)piperidin-4-yl)methanone], 27.5 nM; to `O=C(C1CCN(CC(F)(F)F)CC1)N1Cc2cccnc2Nc2cc(F)c(N3[C@@H]4CO[C@H]5[C@@H]4OC[C@H]53)cc21` [Example 28, (9-fluoro-8-((3R,3aR,6R,6aR)-hexahydro-3,6-epiminofuro[3,2-b]furan-7-yl)-5,11-dihydro-6H-benzo[b]pyrido[2,3-e][1,4]diazepin-6-yl)(1-(2,2,2-trifluoroethyl)piperidin-4-yl)methanone], 27.6 nM.
To `O=C(C1CCN(CC(F)(F)F)CC1)N1Cc2cc(F)cnc2Nc2cc(F)c(N3CC4CCC3CO4)cc21` (stereo not shown) [Example 29, (8-(2-oxa-5-azabicyclo[2.2.2]octan-5-yl)-3,9-difluoro-5,11-dihydro-6H-benzo[b]pyrido[2,3-e][1,4]diazepin-6-yl)(1-(2,2,2-trifluoroethyl)piperidin-4-yl)methanone] belongs 9.9 nM.
The figure for `CO[C@H]1C[C@H]2CC[C@@H](C1)N2c1cc2c(cc1F)Nc1ncc(F)cc1CN2C(=O)C1CCN(CC(F)(F)F)CC1` [Example 30, (3,9-difluoro-8-((1R,3r,5S)-3-methoxy-8-azabicyclo[3.2.1]octan-8-yl)-5,11-dihydro-6H-benzo[b]pyrido[2,3-e][1,4]diazepin-6-yl)(1-(2,2,2-trifluoroethyl)piperidin-4-yl)methanone] is 14.1 nM.
In the case of `O=C(C1CCN(CC(F)(F)F)CC1)N1Cc2cc(F)cnc2Nc2cc(F)c(N3C[C@H]4CC[C@@H]3CO4)cc21` [Example 31, (8-((1R,4R)-2-oxa-5-azabicyclo[2.2.2]octan-5-yl)-3,9-difluoro-5,11-dihydro-6H-benzo[b]pyrido[2,3-e][1,4]diazepin-6-yl)(1-(2,2,2-trifluoroethyl)piperidin-4-yl)methanone], the half-maximal inhibitory concentration (IC50) was determined as 18 nM.
As for `O=C(C1CCN(CC(F)(F)F)CC1)N1Cc2cc(F)cnc2Nc2cc(F)c(N3C[C@@H]4CC[C@H]3CO4)cc21` [Example 32, (8-((1S,4S)-2-oxa-5-azabicyclo[2.2.2]octan-5-yl)-3,9-difluoro-5,11-dihydro-6H-benzo[b]pyrido[2,3-e][1,4]diazepin-6-yl)(1-(2,2,2-trifluoroethyl)piperidin-4-yl)methanone], the concentration for half-maximal inhibition (IC50) worked out at 18.1 nM.
`CC(C)O[C@H]1CC[C@H](C(=O)N2Cc3cc(F)cnc3Nc3ccc([C@H]4COCCO4)cc32)OC1` [Example 33, (8-((S)-1,4-Dioxan-2-yl)-3-fluoro-5,11-dihydro-6H-benzo[b]pyrido[2,3-e][1,4]diazepin-6-yl)((2R,5S)-5-isopropoxytetrahydro-2H-pyran-2-yl)methanone] came in with an IC50 of 21.8 nM.
In turn, `CC(C)O[C@H]1CC[C@H](C(=O)N2Cc3cc(F)cnc3Nc3ccc([C@@H]4COCCO4)cc32)OC1` [Example 34, (8-((R)-1,4-dioxan-2-yl)-3-fluoro-5,11-dihydro-6H-benzo[b]pyrido[2,3-e][1,4]diazepin-6-yl)((2R,5S)-5-isopropoxytetrahydro-2H-pyran-2-yl)methanone] had an IC50 of 23.4 nM.
Take `CC(C)O[C@H]1CC[C@H](C(=O)N2Cc3cccnc3Nc3cc(F)c(C4COCCO4)cc32)OC1` (stereo partly drawn) [Example 37, (8-(1,4-dioxan-2-yl)-9-fluoro-5,11-dihydro-6H-benzo[b]pyrido[2,3-e][1,4]diazepin-6-yl)((2R,5S)-5-isopropoxytetrahydro-2H-pyran-2-yl)methanone]: 36.9 nM corresponded to half-maximal inhibition (IC50).
Regarding `CC(C)O[C@H]1CC[C@H](C(=O)N2Cc3cccnc3Nc3cc(F)c(C4COCCO4)cc32)OC1` (stereo partly drawn) [Example 38, (8-(1,4-dioxan-2-yl)-9-fluoro-5,11-dihydro-6H-benzo[b]pyrido[2,3-e][1,4]diazepin-6-yl)((2R,5S)-5-isopropoxytetrahydro-2H-pyran-2-yl)methanone], the IC50 is 36 nM.
The figure for `CO[C@H]1C[C@H]2CC[C@@H](C1)N2c1ccc2c(c1)N(C(=O)[C@H]1CC[C@H](OC(C)C)CO1)Cc1cc(F)cnc1N2` [Example 39, (3-fluoro-8-((1R,3S,5S)-3-methoxy-8-azabicyclo[3.2.1]octan-8-yl)-5,11-dihydro-6H-benzo[b]pyrido[2,3-e][1,4]diazepin-6-yl)((2R,5S)-5-isopropoxytetrahydro-2H-pyran-2-yl)methanone] is 10.4 nM.
`CC(C)O[C@H]1CC[C@H](C(=O)N2Cc3cc(F)cnc3Nc3ccc(N4CC5(CCCOC5)C4)cc32)OC1` [Example 40, (3-fluoro-8-(6-oxa-2-azaspiro[3.5]nonan-2-yl)-5,11-dihydro-6H-benzo[b]pyrido[2,3-e][1,4]diazepin-6-yl)((2R,5S)-5-isopropoxytetrahydro-2H-pyran-2-yl)methanone] had an IC50 of 25.5 nM.
In turn, `CC(C)O[C@H]1CC[C@H](C(=O)N2Cc3cc(F)cnc3Nc3ccc(N4C[C@H]5COC[C@@H](C4)O5)cc32)OC1` [Example 41, (8-((1R,5S)-3,9-dioxa-7-azabicyclo[3.3.1]nonan-7-yl)-3-fluoro-5,11-dihydro-6H-benzo[b]pyrido[2,3-e][1,4]diazepin-6-yl)((2R,5S)-5-isopropoxytetrahydro-2H-pyran-2-yl)methanone] displayed a half-inhibitory concentration (IC50) of 21 nM.
The figure for `CC(C)O[C@H]1CC[C@H](C(=O)N2Cc3cc(F)cnc3Nc3ccc(NCC4(CCl)CCCOC4)cc32)OC1` (stereo partly drawn) [Example 42, (8-(((3-(chloromethyl)tetrahydro-2H-pyran-3-yl)methyl)amino)-3-fluoro-5,11-dihydro-6H-benzo[b]pyrido[2,3-e][1,4]diazepin-6-yl)((2R,5S)-5-isopropoxytetrahydro-2H-pyran-2-yl)methanone] is 13.6 nM; for `CCS(=O)(=O)N1CCC(C(=O)N2Cc3cc(F)cnc3Nc3ccc(N4CC5CCC4CO5)cc32)CC1` (stereo not shown) [Example 43, (8-(2-oxa-5-azabicyclo[2.2.2]octan-5-yl)-3-fluoro-5,11-dihydro-6H-benzo[b]pyrido[2,3-e][1,4]diazepin-6-yl)(1-(ethylsulfonyl)piperidin-4-yl)methanone] it is 87 nM.
